# Data: ChEMBL document CHEMBL1126101, “Synthesis and structure-activity relationships of acetylcholinesterase inhibitors: 1-benzyl-4-(2-phthalimidoethyl)piperidine and related derivatives” (J Med Chem, 1992)
# Biological target: T1, Acetylcholinesterase (Mus musculus, UniProt P21836)
# T1 sequence (P21836 whole entry): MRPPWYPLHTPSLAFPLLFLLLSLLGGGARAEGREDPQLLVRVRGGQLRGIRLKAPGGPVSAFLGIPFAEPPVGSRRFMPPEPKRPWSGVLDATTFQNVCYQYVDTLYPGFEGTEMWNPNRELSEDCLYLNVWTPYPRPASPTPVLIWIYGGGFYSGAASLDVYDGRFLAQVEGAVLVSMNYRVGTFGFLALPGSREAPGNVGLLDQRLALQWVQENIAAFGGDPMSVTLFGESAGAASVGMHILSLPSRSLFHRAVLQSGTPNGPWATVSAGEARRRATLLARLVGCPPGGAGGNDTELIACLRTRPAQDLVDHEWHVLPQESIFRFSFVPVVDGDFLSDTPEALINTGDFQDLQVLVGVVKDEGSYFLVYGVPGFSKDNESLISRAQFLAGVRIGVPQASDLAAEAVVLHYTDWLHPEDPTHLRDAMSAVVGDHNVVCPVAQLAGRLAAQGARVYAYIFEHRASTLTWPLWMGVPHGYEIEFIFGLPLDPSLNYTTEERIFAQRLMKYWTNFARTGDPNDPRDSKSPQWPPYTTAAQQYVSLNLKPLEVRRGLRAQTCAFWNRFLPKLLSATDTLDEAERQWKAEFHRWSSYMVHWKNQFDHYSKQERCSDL
# Test: biochemical
# Description: In vitro inhibitory concentration against acetylcholinesterase (AChE) obtained from mouse brain homogenate.
row,Structure (SMILES),IC50 [nM]
1,O=C1c2ccc([N+](=O)[O-])cc2C(=O)N1CCC1CCN(Cc2ccccc2)CC1,12.5
2,O=C1c2ccccc2C(=O)N1CCC1CCN(Cc2ccccc2)CC1,30
3,O=C1c2ccc([N+](=O)[O-])cc2C(=O)N1CCC1CCN(Cc2ccc(Cl)cc2)CC1,240
4,CC(=O)N(C)CCC1CCN(Cc2ccccc2)CC1,660
5,O=C(c1ccc([N+](=O)[O-])cc1)N(CCC1CCN(Cc2ccccc2)CC1)c1ccccc1,5.4
6,COc1cccc(N(CCC2CCN(Cc3ccccc3)CC2)C(C)=O)c1,46
7,O=C(Nc1ccc2c(c1)C(=O)N(CCC1CCN(Cc3ccccc3)CC1)C2=O)c1ccccc1,1.2
8,Nc1cccc2c1C(=O)N(CCC1CCN(Cc3ccccc3)CC1)C2=O,11
9,O=c1c2ccccc2ncn1CCC1CCN(Cc2ccccc2)CC1,1200
10,O=C(C1CCCCC1)N(CCC1CCN(Cc2ccccc2)CC1)c1ccccc1,9400
11,CN1CCC(CCN2C(=O)c3ccc([N+](=O)[O-])cc3C2=O)CC1,6800
12,O=C1Cc2ccccc2C(=O)N1CCC1CCN(Cc2ccccc2)CC1,23
13,CC(=O)N(CCC1CCN(Cc2ccccc2)CC1)c1cccc(F)c1,65
14,O=c1c2ccccc2ccn1CCC1CCN(Cc2ccccc2)CC1,1100
15,CC(=O)N(CCC1CCN(Cc2ccccc2)CC1)c1ccncc1,108
16,O=C1CCCCN1CCC1CCN(Cc2ccccc2)CC1,270
17,O=C(Nc1cccc2c1C(=O)N(CCC1CCN(Cc3ccccc3)CC1)C2=O)c1ccccc1,340
18,COc1ccc(N(CCC2CCN(Cc3ccccc3)CC2)C(C)=O)cc1,700
19,CCC(=O)N(CCC1CCN(Cc2ccccc2)CC1)c1ccccc1,830
20,COc1ccc(C(=O)N(CCC2CCN(Cc3ccccc3)CC2)c2ccccc2)cc1,590
21,c1ccc(CN2CCC(CCN3CCc4ccccc4C3)CC2)cc1,1600
22,O=C1c2ccc([N+](=O)[O-])cc2C(=O)N1CC1CCN(Cc2ccccc2)CC1,3000
23,O=C1c2ccccc2CN1CCC1CCN(Cc2ccccc2)CC1,98
24,COc1ccc(CN2CCC(CCN3C(=O)c4ccc([N+](=O)[O-])cc4C3=O)CC2)cc1,440
25,CC(=O)N(CCC1CCN(Cc2ccccc2)CC1)c1ccc(F)cc1,205
26,O=C1c2ccc([N+](=O)[O-])cc2C(=O)N1C1CCN(Cc2ccccc2)CC1,27000
27,CN(CCC1CCN(Cc2ccccc2)CC1)C(=O)c1ccc(S(=O)(=O)Cc2ccccc2)cc1,0.56
28,CNC(=O)Oc1ccc2c(c1)[C@]1(C)CCN(C)[C@@H]1N2C [PHYSOSTIGMINE],0.69

# Biological target: T2, Butyrylcholinesterase (Rattus norvegicus, UniProt Q9JKC1)
# Test: not given
# T2 sequence (Q9JKC1 whole entry): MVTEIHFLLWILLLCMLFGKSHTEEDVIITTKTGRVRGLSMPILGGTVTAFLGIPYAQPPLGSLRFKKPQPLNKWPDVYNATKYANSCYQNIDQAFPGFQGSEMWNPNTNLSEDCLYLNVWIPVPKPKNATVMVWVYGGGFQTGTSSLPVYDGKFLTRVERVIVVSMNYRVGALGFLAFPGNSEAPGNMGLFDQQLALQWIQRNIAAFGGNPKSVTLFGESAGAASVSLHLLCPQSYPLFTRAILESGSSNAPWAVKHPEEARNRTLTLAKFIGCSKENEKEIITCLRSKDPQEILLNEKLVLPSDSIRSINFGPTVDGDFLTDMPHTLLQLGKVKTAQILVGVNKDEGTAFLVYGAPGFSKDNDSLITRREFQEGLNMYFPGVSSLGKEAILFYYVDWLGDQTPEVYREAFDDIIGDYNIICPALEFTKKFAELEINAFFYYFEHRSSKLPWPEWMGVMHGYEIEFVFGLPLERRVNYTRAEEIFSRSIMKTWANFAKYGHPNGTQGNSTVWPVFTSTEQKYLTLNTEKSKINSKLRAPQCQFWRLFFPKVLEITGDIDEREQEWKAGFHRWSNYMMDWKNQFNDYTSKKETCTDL
row,Structure (SMILES),IC50 [nM]
1,O=C(Nc1ccc2c(c1)C(=O)N(CCC1CCN(Cc3ccccc3)CC1)C2=O)c1ccccc1,42300

# Biological target: T2, Butyrylcholinesterase
# Test: In vitro inhibitory concentration against butyrylcholinesterase (BuChE) obtained from rat plasma
# Assay type: cell-free
row,Structure (SMILES),IC50 [nM]
1,CNC(=O)Oc1ccc2c(c1)[C@]1(C)CCN(C)[C@@H]1N2C [PHYSOSTIGMINE],8.1
